Measurements taken from PMC4184574, “Enantioselectivity in the cytochrome P450-dependent conversion of tegafur to 5-fluorouracil in human liver microsomes” (Pharmacology Research & Perspectives, 2013).

How the values were obtained:
CYP2C19 = target: T1, CYP2C19 (Homo sapiens, UniProt P33261); assay: 5-FU formation from FT enantiomers by cDNA-expressed CYP2C19 (kinetics, velocity, RAF contribution); format: in vitro ADME; settings: for CYP contribution: CYP2C19, RAF method, 30 μmol/L
T1 construct: purchased BD Gentest; host or cells: insect cells (baculovirus)
T1 sequence (P33261 whole entry): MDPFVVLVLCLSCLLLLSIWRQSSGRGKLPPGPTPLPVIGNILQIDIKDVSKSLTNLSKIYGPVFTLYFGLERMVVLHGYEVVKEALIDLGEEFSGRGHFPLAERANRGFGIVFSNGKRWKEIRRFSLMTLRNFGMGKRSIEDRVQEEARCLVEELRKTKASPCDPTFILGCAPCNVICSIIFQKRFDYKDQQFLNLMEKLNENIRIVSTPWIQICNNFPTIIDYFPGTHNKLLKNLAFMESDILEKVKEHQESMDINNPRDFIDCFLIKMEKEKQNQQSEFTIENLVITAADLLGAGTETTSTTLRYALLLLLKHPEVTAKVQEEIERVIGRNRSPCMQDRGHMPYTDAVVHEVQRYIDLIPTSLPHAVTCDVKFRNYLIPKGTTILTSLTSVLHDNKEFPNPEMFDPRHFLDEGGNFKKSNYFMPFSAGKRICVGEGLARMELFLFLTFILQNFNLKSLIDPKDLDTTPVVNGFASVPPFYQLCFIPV
Procedure: (pooled preparations from 20 donors; Kansas City, KS). […] Insect microsomes expressing only NADPH-P450 oxidoreductase and cytochrome b5 were also used as control. These enzymes were stored at −80°C until use.
5-FU formed from FT was subjected to extensive metabolism by dihydropyrimidine dehydrogenase (DPD) contaminating human hepatic preparations. Therefore, a potent DPD inhibitor, CDHP, was always added to avoid the unexpected loss of 5-FU (Ikeda et al. [2000]; Yamamiya et al. [2010]). Incubation mixture for hepatic microsomal metabolism contained FT, microsomes (1 mg protein/mL), 0.1 mmol/L CDHP, and an NADPH-generating system consisting of 1.3 mmol/L β-NADP^+, 3.3 mmol/L glucose-6-phosphate, 3.3 mmol/L magnesium chloride, and 0.4 units glucose-6-phosphate dehydrogenase in 100 mmol/L Tris (pH 7.4). Metabolic reaction by S9 and cytosol (each 2 mg protein/mL) was carried out in 100 mmol/L phosphate (pH 7.4) because TPase requires phosphate ions for catalyzing the reaction. In some cases, insect microsomes expressing recombinant CYP isoforms (20 pmol/mL) were added to the incubation mixtures in either 50, 100 mmol/L phosphate (pH 7.4) or 100 mmol/L Tris (pH 7.4), depending on supplier's recommendation. […] The reaction for the assay of FT metabolism was initiated by adding the substrate, following preincubation for 5 min at 37°C. […] The incubation times of microsomes, cytosol, and S9 were 15, 15, and 30 min, respectively. After centrifugation, the supernatant was collected and stored at −80°C until the determination of 5-FU. Because a small portion of FT is nonenzymatically converted to 5-FU, the content of 5-FU spontaneously formed was subtracted from total yield obtained after incubation to correct the activity. The spontaneous degradation of FT to 5-FU was evaluated using enzymes inactivated by heating them at 100°C for 5 min.
Concentration of 5-FU was determined using a LC/MS/MS system. […] The mobile phase consisted of 10 mmol/L ammonium acetate/acetonitrile 10:90 (v/v). The MS/MS analysis was performed in negative ionization mode under multiple reaction monitoring (MRM) mode, using mass transitions, m/z 128.6/41.8 for 5-FU and m/z 130.6/42.8 for ^15N2-5-FU, an internal standard (IS). […] For quantification of 5-FU, the calibration curves were linear over the range 2–1000 ng/mL.
In determining kinetic parameters, FT concentration ranged from 0.03 to 10 mmol/L. All reactions were performed in a linear range of 5-FU formation with respect to protein or CYP concentrations and incubation time. Eadie–Hofstee plot analysis was used to characterize enzyme kinetics in which kinetic parameters were estimated by fitting the data to the following equations (1) or (2): [drawing 1] (1) [drawing 2] (2) where V is 5-FU formation rate, S is FT concentration in the incubation mixture, Km1 and Km2 are affinity constants for high- and low-affinity components, respectively, and Vmax1 and Vmax2 are maximum velocities for high- and low-affinity components, respectively.
The contribution of CYPn to the metabolism of R- and S-FT at their concentration of 30 μmol/L was subsequently calculated using equation (4). [drawing 4] (4) VCYPn = 5-FU formation rate in cDNA-expressed CYPn.

[1] = design: method as in Damle et al. [2001]; settings: ref Damle et al. [2001], cited from earlier work; for maximum concentration (Cmax) / Cmax: cancer patients after oral administration of UFT; for Cmax: read-out: maximum concentration (Cmax); for area under the plasma concentration–time curve / plasma elimination half-life: cancer patients orally given FT

SMILES | CYP contribution (CYP2C19) [%] | Km (CYP2C19; cDNA-expressed CYP2C19) [mM] | maximum concentration (Cmax) [1] [ng/mL] | Cmax [1] [µM] | area under the plasma concentration–time curve [1] | plasma elimination half-life [1] [h] | CLint (CYP2C19; cDNA-expressed CYP2C19) [nL min^−1 pmol^−1 CYP] | Vmax (CYP2C19; cDNA-expressed CYP2C19) [pmol min^−1 pmol^−1 CYP]
O=c1[nH]c(=O)n([C@H]2CCCO2)cc1F [R-FT] | 0.59 | > 10 | 2957 | 14.8 | 10,800 ng h/mL | 2.4 |  | 
O=c1[nH]c(=O)n([C@@H]2CCCO2)cc1F [S-FT] | 3.9 | 6.2 ± 0.3 | 3788 | 18.9 | 49,300 ng h/mL | 10.3 | 0.90 | 5.5 ± 0.2
